Test results as given in patent publication US8084481B2, “Substituted arylimidazolone and triazolone as inhibitors of vasopressin receptors” (Bayer Pharma Aktiengesellschaft, priority 2006, dated 2011).

How the values were obtained:
human V1a receptor = molecular target: T1, human V1a receptor (Homo sapiens, UniProt P37288); experiment: Cellular in vitro test for determination of the vasopressin receptor activity (aequorin luminescence, CHO cells), human V1a; type: cell-based; settings: cell line transfected with the human V1a receptor, antagonism of [Arg8]-vasopressin, read-out: IC50 hV1a
T1 construct: expressed in transfected cells; host or cells: CHO K1 (ATCC), constitutively expressing a modified aequorin
Text: (§1) B-1. Cellular In Vitro Test for Determination of the Vasopressin Receptor Activity
(§2) The identification of agonists and antagonists of the V1a- and V2-vasopressin receptors in man and the rat and the quantification of the activity of the compounds according to the invention are effected by means of recombinant cell lines. These cells are originally derived from the ovarian epithelial cells of the hamster (Chinese Hamster Ovary, CHO K1, ATCC: American Type Culture Collection, Manassas, Va. 20108, USA). The test cell lines constitutively express a modified form of the calcium-sensitive photoprotein aequorin, which after reconstitution with the cofactor coelenterazine emits light on an increase in the free calcium concentrations [Rizzuto R, Simpson A W, Brini M, Pozzan T, Nature 358, 325-327 (1992)]. In addition, the cells are stably transfected with human or rat V1a- or V2 receptors. In the case of the Gs-coupled V2 receptors, the cells are stably transfected with a further gene which codes for the promiscuous Gα16-Protein [Amatruda T T, Steele D A, Slepak V Z, Simon M I, Proceedings of the National Academy of Science USA 88, 5587-5591 (1991)]. The resulting vasopressin receptor test cells react to stimulation of the recombinantly expressed vasopressin receptors with an intracellular release of calcium ions, which can be quantified by the resulting aequorin luminescence with a suitable luminometer [Milligan G, Marshall F, Rees S, Trends in Pharmacological Sciences 17, 235-237 (1996)].
(§3) On the day before the text, the cells are plated out in culture medium (DMEM, 10% FCS, 2 mM glutamine, 10 mM HEPES) in 384-well microtitre plates and kept in a cell incubator (96% atmospheric humidity, 5% v/v CO2, 37° C.). On the test day, the culture medium is replaced by a Tyrode solution (140 mM NaCl, 5 mM KCl, 1 mM MgCl2, 2 mM CaCl2, 20 mM glucose, 20 mM HEPES) which in addition contains the cofactor coelenterazine (50 μM), and the microtitre plate is then incubated for a further 3-4 hours. The test substances in various concentrations are placed beforehand in the wells of the microtitre plate for 10 to 20 minutes, before the agonist [Arg^8]-vasopressin is added and the resulting light signal immediately measured in the luminometer. The IC50 values are calculated by means of the computer program GraphPad PRISM (Version 3.02).

human V2 receptor = molecular target: T2, human V2 receptor (Homo sapiens, UniProt P30518); experiment: Cellular in vitro test for determination of the vasopressin receptor activity (aequorin luminescence, CHO cells), human V2; type: cell-based; settings: cell line transfected with the human V2 receptor, antagonism of [Arg8]-vasopressin, read-out: IC50 hV2
T2 construct: expressed in transfected cells; host or cells: CHO K1 (ATCC), constitutively expressing a modified aequorin and stably co-transfected with promiscuous G-alpha-16
Text: as §1, §2, §3

T1 sequence (P37288 whole entry): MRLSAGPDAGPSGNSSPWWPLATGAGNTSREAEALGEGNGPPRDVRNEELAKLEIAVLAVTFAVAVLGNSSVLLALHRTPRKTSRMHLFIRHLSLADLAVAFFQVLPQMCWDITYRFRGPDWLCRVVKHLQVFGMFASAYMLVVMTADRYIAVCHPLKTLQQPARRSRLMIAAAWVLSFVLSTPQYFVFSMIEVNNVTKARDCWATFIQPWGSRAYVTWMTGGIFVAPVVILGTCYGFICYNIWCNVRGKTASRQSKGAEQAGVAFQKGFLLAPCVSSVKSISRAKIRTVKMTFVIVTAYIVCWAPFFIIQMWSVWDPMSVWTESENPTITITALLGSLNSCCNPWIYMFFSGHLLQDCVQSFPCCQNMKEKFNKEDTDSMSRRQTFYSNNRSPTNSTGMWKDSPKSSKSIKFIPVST
T2 sequence (P30518 whole entry): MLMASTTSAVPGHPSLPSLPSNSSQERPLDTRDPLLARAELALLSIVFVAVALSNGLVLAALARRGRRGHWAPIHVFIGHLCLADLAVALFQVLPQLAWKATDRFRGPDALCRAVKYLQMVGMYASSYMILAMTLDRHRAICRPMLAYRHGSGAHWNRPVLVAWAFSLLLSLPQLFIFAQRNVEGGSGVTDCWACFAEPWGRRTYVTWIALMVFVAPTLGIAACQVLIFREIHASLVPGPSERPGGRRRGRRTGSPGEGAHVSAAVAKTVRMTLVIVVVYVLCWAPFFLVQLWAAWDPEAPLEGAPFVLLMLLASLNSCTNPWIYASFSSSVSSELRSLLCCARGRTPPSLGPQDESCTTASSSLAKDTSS

IC50 (human V1a receptor)	IC50 (human V2 receptor)	SMILES
0.093 µM	0.784 µM	O=C(Cn1nc(-c2ccc(Cl)cc2)n(C2CC2)c1=O)NCC1(c2ccccc2F)CCCC1 [Example 305]
0.003 µM	1.02 µM	CC(C)(CNC(=O)Cn1nc(-c2ccc(Cl)cc2)n(C2CC2)c1=O)c1ccccc1C(F)(F)F [Example 313]
0.024 µM	1.52 µM	O=C(Cn1nc(-c2ccc(Cl)cc2)n(C2CC2)c1=O)NC1(Cc2ccccc2C(F)(F)F)CC1 [Example 320]
0.05 µM	0.51 µM	COC(=O)[C@@H](Cc1ccccc1C(F)(F)F)NC(=O)Cn1nc(-c2ccc(Cl)cc2)n(C2CC2)c1=O [Example 321]
0.107 µM	0.028 µM	Cc1c(CNC(=O)Cn2nc(-c3ccc(Cl)cc3)n(C3CC3)c2=O)cccc1C(F)(F)F [Example 325]
0.039 µM	1.15 µM	O=C(Cn1nc(-c2ccc(Cl)cc2)n(C2CC2)c1=O)NC(C(=O)NC1CC1)c1ccccc1C(F)(F)F (centres unmarked) [Example 340]
0.004 µM	0.217 µM	COCCn1c(-c2ccc(Cl)cc2)nn(CC(=O)NC(C(=O)N(C)C)c2cccc(C(F)(F)F)c2)c1=O (centres unmarked) [Example 348]
0.019 µM	0.009 µM	O=C(Cn1nc(-c2ccc(Cl)cc2)n(CC(O)C(F)(F)F)c1=O)NCCc1ccccc1OC(F)(F)F (centres unmarked) [Example 359]
0.022 µM	0.008 µM	O=C(Cn1nc(-c2ccc(Cl)cc2)n(CC(O)C(F)(F)F)c1=O)NCC(F)(F)c1cccc(C(F)(F)F)c1 (centres unmarked) [Example 364]
0.611 µM	0.023 µM	CC(C)(NC(=O)Cn1nc(-c2ccc(Cl)cc2)n(CC(F)(F)F)c1=O)c1cccc(C(F)(F)F)c1 [Example 386]
0.019 µM	0.019 µM	CSc1ccccc1CNC(=O)Cn1nc(-c2ccc(Cl)cc2)n(Cc2ccccc2F)c1=O [Example 394, 2-[3-(4-chlorophenyl)-4-(2-fluorobenzyl)-5-oxo-4,5-dihydro-1H-1,2,4-triazol-1-yl]-N-[2-(methylthio)benzyl]-acetamide]
0.87 µM	0.026 µM	CC(=O)Cn1c(-c2ccc(Cl)cc2)nn(CC(=O)NCc2cccc(C(F)(F)F)c2)c1=O [Example 415]
0.032 µM	0.088 µM	C#CCn1c(-c2ccc(Cl)cc2)nn(CC(=O)NCCc2ccccc2C(F)(F)F)c1=O [Example 421]
0.157 µM	0.015 µM	C=C(C)Cn1c(-c2ccc(Cl)cc2)nn(CC(=O)NC(C)(C)c2cccc(C(F)(F)F)c2)c1=O [Example 423, 2-[3-(4-chlorophenyl)-4-(2-methylprop-2-en-1-yl)-5-oxo-4,5-dihydro-1H-1,2,4-triazol-1-yl]-N-1-methyl-1-[3-(trifluoromethyl)phenyl]ethyl-acetamide]
0.199 µM	0.009 µM	CC(C)(NC(=O)Cn1nc(-c2ccc(Cl)cc2)n(Cc2cccc(F)c2)c1=O)c1cccc(C(F)(F)F)c1 [Example 433, 2-[3-(4-chlorophenyl)-4-(3-fluorobenzyl)-5-oxo-4,5-dihydro-1H-1,2,4-triazol-1-yl]-N-1-methyl-1-[3-(trifluoromethyl)phenyl]ethyl-acetamide]
0.058 µM	0.077 µM	CCOC(=O)Cn1c(-c2ccc(Cl)cc2)nn(CC(=O)NCCc2ccccc2C(F)(F)F)c1=O [Example 439]

IC50 (human V1a receptor)	IC50 (human V2 receptor)	SMILES
0.093 µM	0.023 µM	CCC(=O)Cn1c(-c2ccc(Cl)cc2)nn(CC(=O)NC(C)(C)c2cccc(C(F)(F)F)c2)c1=O [Example 443, 2-[3-(4-chlorophenyl)-5-oxo-4-(2-oxobutyl)-4,5-dihydro-1H-1,2,4-triazol-1-yl]-N-1-methyl-1-[3-(trifluoromethyl)phenyl]ethyl-acetamide]
0.043 µM	0.029 µM	C/C=C/n1c(-c2ccc(Cl)cc2)nn(CC(=O)NCc2cccc(C(F)(F)F)c2)c1=O [Example 457, 2-{3-(4-chlorophenyl)-5-oxo-4-[(1E)-prop-1-en-1-yl]-4,5-dihydro-1H-1,2,4-triazol-1-yl}-N-[3-(trifluoromethyl)benzyl]-acetamide]
0.373 µM	0.046 µM	CC(C)(NC(=O)Cn1nc(-c2ccc(Cl)cc2)n(CCN2CCOCC2)c1=O)c1cccc(C(F)(F)F)c1 [Example 462, 2-[3-(4-chlorophenyl)-4-(2-morpholin-4-ylethyl)-5-oxo-4,5-dihydro-1H-1,2,4-triazol-1-yl]-N-{1-methyl-1-[3-(trifluoromethyl)phenyl]ethyl}-acetamide]
0.439 µM	0.026 µM	CC(C)(NC(=O)Cn1nc(-c2ccc(Cl)cc2)n(CC(=O)O)c1=O)c1cccc(C(F)(F)F)c1 [Example 467, 3-(4-chlorophenyl)-1-[2-(1-methyl-1-[3-(trifluoromethyl)phenyl]ethylamino)-2-oxoethyl]-5-oxo-1,5-dihydro-4H-1,2,4-triazol-4-yl-acetic acid]
0.039 µM	0.002 µM	CC(C)(NC(=O)Cn1nc(-c2ccc(Cl)cc2)n(Cc2cccc(C(=O)O)c2)c1=O)c1cccc(C(F)(F)F)c1 [Example 471, 3-(3-(4-chlorophenyl)-1-[2-(1-methyl-1-[3-(trifluoromethyl)phenyl]ethylamino)-2-oxoethyl]-5-oxo-1,5-dihydro-4H-1,2,4-triazol-4-ylmethyl)-benzoic acid]
0.328 µM	0.02 µM	CN(C)C(=O)c1cccc(Cn2c(-c3ccc(Cl)cc3)nn(CC(=O)NC(C)(C)c3cccc(C(F)(F)F)c3)c2=O)c1 [Example 475, 3-(3-(4-chlorophenyl)-1-[2-(1-methyl-1-[3-(trifluoromethyl)phenyl]ethylamino)-2-oxoethyl]-5-oxo-1,5-dihydro-4H-1,2,4-triazol-4-ylmethyl)-N,N-dimethylbenzamide]
1.23 µM	0.094 µM	CC(C)(NC(=O)Cn1nc(-c2ccc(Cl)cc2)n(CC(N)=O)c1=O)c1cccc(C(F)(F)F)c1 [Example 476]
0.009 µM	0.25 µM	CS(=O)(=O)c1ccccc1CNC(=O)Cn1nc(-c2ccc(Cl)cc2)n(Cc2ccccc2F)c1=O [Example 482, 2-[3-(4-chlorophenyl)-4-(2-fluorobenzyl)-5-oxo-4,5-dihydro-1H-1,2,4-triazol-1-yl]-N-[2-(methylsulphonyl)benzyl]-acetamide]
0.035 µM	0.002 µM	CC(C)(NC(=O)Cn1nc(-c2ccc(Cl)cc2)n(CC(=O)C(F)(F)F)c1=O)c1cccc(C(F)(F)F)c1 [Example 489, 2-[3-(4-chlorophenyl)-5-oxo-4-(3,3,3-trifluoro-2-oxopropyl)-4,5-dihydro-1H-1,2,4-triazol-1-yl]-N-{1-methyl-1-[3-(trifluoromethyl)phenyl]ethyl}-acetamide]
0.049 µM	0.257 µM	COCCn1c(-c2ccc(Cl)cc2)nn(CC(=O)NCC2(c3ccccc3F)CCCC2)c1=O [Example 494]
0.166 µM	0.576 µM	Cc1csc(-c2nn(CC(=O)NCc3cccc(C(F)(F)F)c3)c(=O)n2CC(C)C)c1Cl [Example 496, 2-[3-(3-chloro-4-methyl-2-thienyl)-4-isobutyl-5-oxo-4,5-dihydro-1H-1,2,4-triazol-1-yl]-N-[3-(trifluoromethyl)phenylmethyl]-acetamide]
0.025 µM	0.221 µM	O=C(Cn1cc(-c2ccc(Cl)s2)n(Cc2ccccc2F)c1=O)NCc1cccc(C(F)(F)F)c1 [Example 503]
0.005 µM	0.336 µM	O=C(Cn1cc(-c2ccc(Cl)cc2)n(CC2CC2)c1=O)NCCc1ccccc1C(F)(F)F [Example 508]
0.008 µM	0.004 µM	NC(=O)C(NC(=O)Cn1nc(-c2ccc(Cl)cc2)n(CC(O)C(F)(F)F)c1=O)c1cccc(C(F)(F)F)c1 (centres unmarked) [Example 509, 2-[3-(4-chlorophenyl)-5-oxo-4-(3,3,3-trifluoro-2-hydroxypropyl)-4,5-dihydro-1H-1,2,4-triazol-1-yl]-N-{2-amino-2-oxo-1-[3-(trifluoromethyl)phenyl]ethyl}-acetamide]
0.004 µM	0.007 µM	O=C(Cn1nc(-c2ccc(Cl)cc2)n(CC(O)C(F)(F)F)c1=O)NC(C(=O)NC1CC1)c1cccc(C(F)(F)F)c1 (centres unmarked) [Example 510, 2-([3-(4-chlorophenyl)-5-oxo-4-(3,3,3-trifluoro-2-hydroxypropyl)-4,5-dihydro-1H-1,2,4-triazol-1-yl]acetylamino)-N-cyclopropyl-2-[3-(trifluoromethyl)phenyl]-acetamide]
